Results from ChEMBL document CHEMBL1122010 (J Med Chem, 1982).

Experiments:
Dihydrofolate reductase = molecular target: T1, Dihydrofolate reductase (Mus musculus, UniProt P00375); assay: Inhibition of Dihydrofolate reductase in mouse L1210 cells; format: cell-based
T1 sequence (P00375 whole entry): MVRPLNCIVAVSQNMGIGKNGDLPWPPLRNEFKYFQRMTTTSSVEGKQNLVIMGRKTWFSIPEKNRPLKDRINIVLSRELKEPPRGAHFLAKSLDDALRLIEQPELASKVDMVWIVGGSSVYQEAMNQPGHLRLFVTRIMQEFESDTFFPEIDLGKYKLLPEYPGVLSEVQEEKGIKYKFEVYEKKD

HEp-2 = assay: Effective dose against H.Ep.-2 cells; format: functional; conditions: Homo sapiens, read-out: ED50 (the source's name)
L1210 [1] = assay: Ki value was measured as influx in L1210 cell membrane transport.; format: functional, cell-based, Mus musculus
L1210 [2] = assay: Percent increase in life span was measured against L1210 murine leukemia cells at the dose of 25 mg/kg; format: functional; conditions: Mus musculus
[3] = The compound was compared with MTX with respect to cytotoxicity toward H.Ep.-2 cells.; format: functional
L1210 [4] = assay: Percent increase in life span was measured against L1210 murine leukemia cells at the dose of 50 mg/kg; format: functional; conditions: Mus musculus
L1210 [5] = assay: k value was measured as efflux in L1210 cell membrane transport.; format: functional, Mus musculus
L1210 [6] = assay: Percent increase in life span was measured against L1210 murine leukemia cells at the dose of 1.3 mg/kg; format: functional; conditions: Mus musculus
L1210 [7] = assay: Km value was measured as influx in L1210 cell membrane transport.; format: functional, cell-based; conditions: Mus musculus
L1210 [8] = assay: Percent increase in life span was measured against L1210 murine leukemia cells at the dose of 100 mg/kg; format: functional; conditions: Mus musculus
L1210 [9] = assay: Percent increase in life span was measured against L1210 murine leukemia cells at the dose of 200 mg/kg; format: functional; conditions: Mus musculus
L1210 [10] = assay: Percent increase in life span was measured against L1210 murine leukemia cells at the dose of 2.5 mg/kg; format: functional; conditions: Mus musculus
L1210 [11] = assay: Percent increase in life span was measured against L1210 murine leukemia cells at the dose of 5 mg/kg; format: functional; conditions: Mus musculus
L1210 [12] = assay: Percent increase in life span was measured against L1210 murine leukemia cells at the dose of 180 mg/kg; format: functional; conditions: Mus musculus

SMILES | Ki (Dihydrofolate reductase) | EC50 (HEp-2) | Ki (L1210 [1]) | ILS at 25 mg/kg (L1210 [2]) | MTX ratio [3] | ILS at 50 mg/kg (L1210 [4]) | k (L1210 [5]) | ILS at 1.3 mg/kg (L1210 [6]) | Km (L1210 [7]) | ILS at 100 mg/kg (L1210 [8]) | ILS at 200 mg/kg (L1210 [9]) | ILS at 2.5 mg/kg (L1210 [10]) | ILS at 5 mg/kg (L1210 [11]) | ILS at 180 mg/kg (L1210 [12])
CN(Cc1cnc2nc(N)nc(N)c2n1)c1ccc(C(=O)NC(CCC(=O)O)C(=O)N[C@@H](CCC(=O)O)C(=O)O)cc1 (stereo partly drawn) | 170 nM | 180 nM | 61000 nM | 67% | 75 |  |  |  |  |  |  |  |  | 
CN(Cc1cnc2nc(N)nc(N)c2n1)c1ccc(C(=O)NC(CCC(=O)O)C(=O)NCC(=O)O)cc1 (stereo not drawn) | 208 nM | 590 nM | 66600 nM |  | 370 | 41% |  |  |  |  |  |  |  | 
CN(Cc1cnc2nc(N)nc(N)c2n1)c1ccc(C(=O)NC(CCC(=O)O)C(N)=O)cc1 (stereo not drawn) | 460 nM | 610 nM |  | 34% | 250 |  |  |  |  |  |  |  |  | 
CN(Cc1cnc2nc(N)nc(N)c2n1)c1ccc(C(=O)N[C@@H](CCC(=O)O)C(=O)O)cc1 [METHOTREXATE] |  |  | 3500 nM |  |  |  | 0.23 min⁻¹ | 48% | 3.3 µM |  |  |  |  | 
CNC(=O)CCC(NC(=O)c1ccc(N(C)Cc2cnc3nc(N)nc(N)c3n2)cc1)C(=O)O (stereo not drawn) | 0.0027 nM | 27 nM |  |  | 11 |  | 0.21 min⁻¹ |  | 27.6 µM | 58% |  |  |  | 
CCCCCNC(=O)CCC(NC(=O)c1ccc(N(C)Cc2cnc3nc(N)nc(N)c3n2)cc1)C(=O)O (stereo not drawn) | 0.0035 nM | 55 nM | 16800 nM |  | 23 |  | 0.26 min⁻¹ |  | 16.9 µM |  | 55% |  |  | 
CN(Cc1cnc2nc(N)nc(N)c2n1)c1ccc(C(=O)NC(CCC(=O)O)C(=O)N[C@@H](CC(=O)O)C(=O)O)cc1 (stereo partly drawn) | 208 nM | 520 nM | 146000 nM | 47% | 217 |  |  |  |  |  |  |  |  | 
CN(Cc1cnc2nc(N)nc(N)c2n1)c1ccc(C(=O)NC(CCC(=O)N[C@@H](CCC(=O)O)C(=O)O)C(=O)O)cc1 (stereo partly drawn) | 0.0037 nM | 5.2 nM |  |  | 2.2 |  | 0.22 min⁻¹ |  | 49.3 µM |  |  | 65% |  | 
CN(Cc1cnc2nc(N)nc(N)c2n1)c1ccc(C(=O)NC(CCC(=O)N[C@@H](CC(=O)O)C(=O)O)C(=O)O)cc1 (stereo partly drawn) | 0.0028 nM | 330 nM |  |  | 140 |  |  |  | > 300 µM |  |  |  | 65% | 
CN(Cc1cnc2nc(N)nc(N)c2n1)c1ccc(C(=O)NC(CCC(N)=O)C(=O)O)cc1 (stereo not drawn) | 0.0027 nM | 28 nM | 8400 nM |  | 12 |  | 0.15 min⁻¹ |  | 9.4 µM |  |  |  |  | 58%
CN(Cc1cnc2nc(N)nc(N)c2n1)c1ccc(C(=O)NC(CCC(=O)NCc2ccccc2)C(=O)O)cc1 (stereo not drawn) | 0.0036 nM | 210 nM | 3800 nM |  | 88 |  | 0.19 min⁻¹ |  | 3.6 µM | 33% |  |  |  | 
CN(C)C(=O)CCC(NC(=O)c1ccc(N(C)Cc2cnc3nc(N)nc(N)c3n2)cc1)C(=O)O (stereo not drawn) | 0.0039 nM | 59 nM |  |  | 25 | 44% | 0.26 min⁻¹ |  | 48.4 µM |  |  |  |  | 
CN(Cc1cnc2nc(N)nc(N)c2n1)c1ccc(C(=O)NC(CCC(=O)NCC(=O)O)C(=O)O)cc1 (stereo not drawn) | 0.0029 nM | 5.9 nM |  |  | 2.5 |  | 2.1 min⁻¹ |  | 3.9 µM |  |  |  | 74% | 
